What is called half-life is how long it takes for the measured level to halve.

In the first data set the test system is matching cell lines.
Assay: not given
Particulars: cited from earlier work.
Turning to `CS(=O)(=O)NN(CCCl)S(C)(=O)=O` [90CE, 1,2-bis(methylsulfonyl)-1-(2-chloroethyl)hydrazine], the “MGMT level up to which protection towards the agent is proportional to MGMT activity” value is ~ 10,000 MGMT molecules/cell.

The data set is the same for the next values; noted with them: same matching cell lines with/without MGMT expression; cited from earlier work.
Turning to `O=NN(CCCl)C(=O)NCCCl` [bis-chloroethylnitrosourea (BCNU), bis-chloroethylnitrosourea], the “increase in the IC50 value resulting from MGMT expression” value is listed as 2 to 3 fold. For `CS(=O)(=O)NN(CCCl)S(C)(=O)=O` [90CE, 1,2-bis(methylsulfonyl)-1-(2-chloroethyl)hydrazine], the “increase in the IC50 value resulting from MGMT expression” value is listed as ~ 20 fold.

The next data set has as its system O-6 position of DNA guanine.
Assay: not given
The arrangement: method as in PMID 20654586. Particulars: relative to chloroethylating counterpart 90CE; cited from earlier work.
For the compound `CN(NS(C)(=O)=O)S(C)(=O)=O` [KS90, 1,2-bis(methylsulfonyl)-1-(methyl)hydrazine], the “molar yield of guanine O-6 alkylations relative to 90CE” value is listed as 5–6 times.

System in the next data set: not listed separately
Briefly: Linker half-life determination by spectrophotometric proton release assay (spontaneous hydrolysis). In kind it is physicochemical. Conditions: buffer; 37 °C, pH 7.4; low molecular weight 90CE prodrugs with different N-2 substituents; read-out: Half-life (h) 37°C pH 7.4 (spontaneous hydrolysis) (converted). As for the experimental part:
Linker half-life determination. The hydrolytic half-lives of several proposed linker moieties were determined using the proton release assay. The results are given in (Figure 4), several possible linkers with suitably long half-live values (40–300 h) were identified.
Decomposition kinetics. The kinetics of decomposition of various compounds and intermediates under various conditions can be followed using a spectrophotometric proton release assay. This is the preferred method for relatively short-lived agents as the decomposition can be followed in real time. This method is also suitable for following the decomposition of much longer-lived agents, as long as the reaction vessel/cuvette is sealed to prevent changes in pH due to CO2 absorption/desorption, and the temperature is closely controlled.
For the compound `CC1CCC(C)N1C(=O)N(N(CCCl)S(C)(=O)=O)S(C)(=O)=O` (stereo not shown) [G], the half-life was above 300 h. The same measure, in the same setting: the result for `CS(=O)(=O)N(CCCl)N(C(=O)N1CCCCC1)S(C)(=O)=O` [H] reads 16.2 ± 0.5 h; that for `CC(=O)N(N(CCCl)S(C)(=O)=O)S(C)(=O)=O` [A], 42.9 ± 2.1 h; that for `COC(=O)N(N(CCCl)S(C)(=O)=O)S(C)(=O)=O` [B], above 300 h. On the same count and under the same terms, next, `CN(C)C(=O)N(N(CCCl)S(C)(=O)=O)S(C)(=O)=O` [D]: 129 ± 9 h. Still for that read-out and setting: the result for `CCN(CC)C(=O)N(N(CCCl)S(C)(=O)=O)S(C)(=O)=O` [E] reads 10.3 ± 0.3 h; that for `CS(=O)(=O)N(CCCl)N(C(=O)N1CCCC1)S(C)(=O)=O` [F], above 300 h; that for `CS(=O)(=O)N(CCCl)N(C(=O)N1CCOCC1)S(C)(=O)=O` [I], above 300 h. In the case of `CNC(=O)N(N(CCCl)S(C)(=O)=O)S(C)(=O)=O` [C], the half-life was 1.17 ± 0.02 h.

The record behind these values is article PMC7825511, “Design Strategy for the EPR Tumor-Targeting of 1,2-Bis(sulfonyl)-1-alkylhydrazines” (Molecules, 2021).
